Test results taken from patent publication US11407741B2, “Compounds and their use as selective inhibitors of caspase-2” (priority 2017, dated 2022).
Where a SMILES comes first, the peptide text is derived from it. The star is where a group is joined. X2 = O=C(O)C[C@H](N*)C(=O)COc1c(F)cccc1F; Quinaldoyl = O=C(c1ccc2ccccc2n1)*

Experiments:
Caspase-3 = biological target: T1, Caspase-3 (Homo sapiens, UniProt P42574); assay: Caspase-3 inhibition assay for irreversible inhibitors (kinact/KI, continuous method); assay type: biochemical; conditions: human recombinant Caspase-3 0.5 nM, 37° C.
T1 construct: the Caspase-2 and Caspase-3 are human recombinant active enzymes; purchased R&D Systems 707-C3-010/CF
T1 sequence (P42574 29-175 limits assumed): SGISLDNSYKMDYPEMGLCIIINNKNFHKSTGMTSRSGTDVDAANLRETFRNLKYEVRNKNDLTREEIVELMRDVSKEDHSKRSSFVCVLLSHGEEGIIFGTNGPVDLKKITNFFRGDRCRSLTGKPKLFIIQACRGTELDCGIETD
T1 sequence (P42574 176-277 limits assumed): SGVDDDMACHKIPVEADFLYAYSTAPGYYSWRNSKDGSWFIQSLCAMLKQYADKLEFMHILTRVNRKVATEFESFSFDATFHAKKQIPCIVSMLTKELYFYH
Procedure: (§1) The efficiency of the comparative compound Δ2Me-TRP601, that is an already known group II Caspase inhibitor (inhibitor of Caspase-2, Caspase-3 and Caspase-7), has been assessed by a similar protocol described in Chauvier et al., 2011 Cell Death Dis 2011, 2:e203.
(§2) In this example, the Caspase-2 and Caspase-3 are human recombinant active enzymes that are respectively provided by Enzo Life® (ALX-201-057-U100) and R&D Systems® (707-C3-010/CF).
Caspase-2 is used at a final concentration of 0.1 nM in a “Caspase-2 buffer” containing 20 mM HEPES (pH 7.4), 5 mM DTT, 2 mM EDTA, 0.1% CHAPS and 800 mM succinate. […]
The peptide substrates used for the enzymatic activity measurements are Ac-DEVD-AMC and Ac-VDVAD-AMC commercialized by EnzoLife® (respectively referenced ALX-260-031-M005 and ALX-260-060-M005). […] The releasing of AMC enables to follow the enzymatic activity in fluorescence unit RFU over time in a 96-wells microplate.
The fluorescence values are measured at 37° C. with a spectrofluorometer with a microplate reader BMG FLUOstar OPTIMA. […]
The inhibitory properties of the tested compounds are evaluated by the determination of the kinact/KI ratio regarding either Caspase-2 or Caspase-3 wherein: • kinact is the maximal inactivation rate constant, and • KI is the dissociation constant according to: […]
The activities of the enzyme are measured between 45 and 60 minutes. […]

Caspase-2 = biological target: T2, Caspase-2 (Homo sapiens, UniProt P42575); assay: Caspase-2 inhibition assay for irreversible inhibitors (kinact/KI, continuous method); assay type: biochemical
T2 construct: the Caspase-2 and Caspase-3 are human recombinant active enzymes; purchased Enzo Life ALX-201-057-U100
T2 sequence (P42575 170-325 limits assumed): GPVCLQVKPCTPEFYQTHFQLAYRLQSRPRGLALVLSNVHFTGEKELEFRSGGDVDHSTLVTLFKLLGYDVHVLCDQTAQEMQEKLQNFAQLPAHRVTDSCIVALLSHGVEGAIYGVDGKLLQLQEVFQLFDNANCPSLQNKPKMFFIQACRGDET
T2 sequence (P42575 348-452 limits assumed): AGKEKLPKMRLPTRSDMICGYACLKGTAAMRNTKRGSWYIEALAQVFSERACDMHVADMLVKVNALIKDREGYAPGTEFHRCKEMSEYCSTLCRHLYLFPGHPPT
Procedure: as §1, §2
Caspase-2 is used at a final concentration of 0.1 nM in a “Caspase-2 buffer” containing 20 mM HEPES (pH 7.4), 5 mM DTT, 2 mM EDTA, 0.1% CHAPS and 800 mM succinate. Caspase-3 is used at a final concentration of 0.5 nM in a “Caspase-3 buffer” containing 20 mM HEPES (pH 7.4), 0.1% CHAPS, 5 mM DTT, and 2 mM EDTA.
The peptide substrates used for the enzymatic activity measurements are Ac-DEVD-AMC and Ac-VDVAD-AMC commercialized by EnzoLife® (respectively referenced ALX-260-031-M005 and ALX-260-060-M005). They are fluorogenic due to the presence of their AMC (7-amino-4-methylcoumarin) end group. The releasing of AMC enables to follow the enzymatic activity in fluorescence unit RFU over time in a 96-wells microplate.
The fluorescence values are measured at 37° C. with a spectrofluorometer with a microplate reader BMG FLUOstar OPTIMA. This apparatus is driven by the software Biolise® and is equipped with thermoelectric cooling device by Peltier effect. The mathematical analyses of the experimental data are done with the software Kaleidagraph®.
The inhibitory properties of the tested compounds are evaluated by the determination of the kinact/KI ratio regarding either Caspase-2 or Caspase-3 wherein: • kinact is the maximal inactivation rate constant, and • KI is the dissociation constant according to:
Said ratio is measured according to the continuous method (Allison R D. Curr Protoc Protein Sci. 2001 May; Chapter 3:Unit 3.5.; Chauvier et al., 2011 Cell Death Dis 2:e203; Tan et al., J Med Chem 2015, […]).
Briefly, Caspases activities were determined by monitoring the hydrolysis of fluorogenic substrates (λexc=355 nm, λem=460 nm) as a function of time, in the presence of untreated Caspases (control) or Caspases that had been incubated with a test compound, for 30 min minimum at 37° C. using a BMG Fluostar microplate reader (black 96-well microplates) and the initial velocity (V0) was determined from the linear portion of the progress curve.
Substrates and compounds were previously dissolved in DMSO at 10 mM, with the final solvent concentration kept at lower 4% (v/v). V0, relative velocities, KM and IC50 were determined from experimental data using Mars data Analysis 2.0 and Kaleidagraph softwares.
Inhibitor binding affinity (dissociation constant, KI) and first-order rate constant (k3) parameters were determined for Caspase-2 and Caspase-3 using the progress curve method. The ratio k3/KI was obtained by fitting the experimental data to the equations (F.U., fluorescence unit): […]
A continuous method of determination of the kinact/KI ratio was used for evaluating the inhibitory activity of the tested compounds against Caspase-2 and Caspase-3.
The reaction mixture is prepared by letting the enzyme and the buffer incubate at 37° C.
The tested inhibitory compounds are prepared at different concentrations (¼ IC50; ½ IC50; IC50; 2 IC50; 4 IC50) and put in the microplate.
Then the reaction mixture comprising the enzyme, the buffer and the substrate is rapidly added in the wells.
The activities of the enzyme are measured between 45 and 60 minutes.
The RFU (Relative Fluorescence Units)=f(times) curves are traced for each concentration of tested molecule according to the following equation: ((((−V0)*(exp(−kobs*m0)))+V0)/kobs*)+RFU0
in which: • V0 corresponds to the initial rate (RFU·s^−1) in the concentration of 0 of the tested inhibitory compound; • kobs is the inactivation rate constant; • RFU0 is the fluorescence value at t=0 min; and • m0 is the variable i.e. the inhibitor concentration.

HeLa cells = assay: Protection against vincristine-induced cell death, propidium iodide flow cytometry; assay type: cell-based, human; design: Index of cell death: key to the marks not given beside the values; conditions: 20 nM Vincristine for 48 hours, propidium iodide positive cells
Procedure: Human HeLa cells are used in this model. HeLa cells (cervical cancer cell line) were obtained from American Type Cell Collection (ATCC), and were cultured in Dulbecco's Modified Eagle Medium (DMEM, High Glucose, GlutaMAX™, Pyruvate) (Gibco, Life technologies), supplemented with 10% FCS and antibiotics (Gibco, Life technologies).
Human HeLa cells are treated with a solution of Vincristine (Sigma Aldrich) (diluted in water at 5 mM). Vincristine works partly by binding to the Tubulin protein, stopping the cell from separating its chromosomes during the metaphase; the cell then undergoes apoptosis through a caspase-dependent process.
Propidium iodide (PI) (Sigma Aldrich) is used to evaluate plasma membrane permeabilisation, a sign of cell death.
24 hours before pharmacological treatment, HeLa cells were plated into 24-well plates. […] Cells were exposed or not (control), to 20 nM Vincristine for 48 hours.
The content of each well is collected is added to PBS and then centrifuged (900 rpm; 5 min).
The pellet obtained is put into 300 μL of a medium comprising propidium iodide and incubated (37° C., 5% CO2) in the dark for 5 minutes and then subjected to flow cytometry analysis.
Fluorescence-Activated Cell Sorting was performed using a FACSCalibur cytometer (Becton Dickinson, San Jose, Calif.). For each sample, data from 5,000 Cells were registered and analyzed with the CellQuest Pro software (Becton Dickinson). Analysis included FSC (Forward Scatter/relating to the cells'size) and SSC (Side Scatter/relating to the cells' granularity) parameters together with FL-1 and FL-3 channel.
The percentage of propidium iodide positive cells gives an estimation of cell death.

| Compound | k3/KI Casp3 (Caspase-3) | Selectivity for Caspase 2 (Caspase-2; comparison of kinact/KI ratios regarding caspase 2 and 3) | k3/KI Casp2 (Caspase-2; human recombinant Caspase-2 0.1 nM, 37° C.) | Selectivity ratio (C2/C3) (Caspase-2; ratio of k3/KI Casp2 to Casp3) | Index of cell death (HeLa cells) |
| --- | --- | --- | --- | --- | --- |
| CC(C)[C@H](NC(=O)c1ccc2ccccc2n1)C(=O)N[C@@H](CC(=O)O)C(=O)N[C@H](C(=O)N[C@@H](C)C(=O)N[C@@H](CC(=O)O)C(=O)COc1c(F)cccc1F)C(C)C [Δ2Me-TRP-601, reference compound] (Quinaldoyl-VDVA-X2) | 1 613 405 M^−1 · s^−1 | no | 1 586 020 M^−1 · s^−1 | 0.98 |  |
| CC[C@]1(O)C[C@H]2CN(CCc3c([nH]c4ccccc34)[C@@](C(=O)OC)(c3cc4c(cc3OC)N(C=O)[C@H]3[C@@](O)(C(=O)OC)[C@H](OC(C)=O)[C@]5(CC)C=CCN6CC[C@]43[C@@H]65)C2)C1 [Vincristine alone, Vincristine, reference compound] |  |  |  |  | ++++ |
